For orientation: IC50 means the concentration needed to halve the response being measured. Usually AUC(0-inf) stands for the area under the concentration-time curve extrapolated to infinity. Low values mean less exposure, high ones more exposure. The term AUC(0-t) denotes the area under the concentration-time curve up to a stated or last time point. Low readings indicate low exposure, high ones high exposure. As a reminder, the Cmax is the maximum level reached in the sampled fluid or tissue. For orientation: Tmax means the time from dosing to the highest level. The term half-life denotes the time needed for the level to fall by half in the phase considered. A low value points to fast loss.

Each structure is given as a SMILES string. Like-named read-outs stand apart in the source and are kept apart here.

This note sets out measurements from patent US20250127800A1, “PYRIMIDINE OR PYRIDINE DERIVATIVE AND MEDICINAL USE THEREOF” (SIGNET THERAPEUTICS INC., priority 2021, published 2025).

In one data set the target is FAK (Homo sapiens (Human), UniProt Q05397). Nature of the data set: In vitro enzymatic inhibitory activity, FAK kinase (HTRF KinEASE-TK). (In general: Time-resolved FRET reads energy transfer from a long-lived donor to a nearby acceptor.)
Chain of FAK (Q05397 whole entry, species assumed): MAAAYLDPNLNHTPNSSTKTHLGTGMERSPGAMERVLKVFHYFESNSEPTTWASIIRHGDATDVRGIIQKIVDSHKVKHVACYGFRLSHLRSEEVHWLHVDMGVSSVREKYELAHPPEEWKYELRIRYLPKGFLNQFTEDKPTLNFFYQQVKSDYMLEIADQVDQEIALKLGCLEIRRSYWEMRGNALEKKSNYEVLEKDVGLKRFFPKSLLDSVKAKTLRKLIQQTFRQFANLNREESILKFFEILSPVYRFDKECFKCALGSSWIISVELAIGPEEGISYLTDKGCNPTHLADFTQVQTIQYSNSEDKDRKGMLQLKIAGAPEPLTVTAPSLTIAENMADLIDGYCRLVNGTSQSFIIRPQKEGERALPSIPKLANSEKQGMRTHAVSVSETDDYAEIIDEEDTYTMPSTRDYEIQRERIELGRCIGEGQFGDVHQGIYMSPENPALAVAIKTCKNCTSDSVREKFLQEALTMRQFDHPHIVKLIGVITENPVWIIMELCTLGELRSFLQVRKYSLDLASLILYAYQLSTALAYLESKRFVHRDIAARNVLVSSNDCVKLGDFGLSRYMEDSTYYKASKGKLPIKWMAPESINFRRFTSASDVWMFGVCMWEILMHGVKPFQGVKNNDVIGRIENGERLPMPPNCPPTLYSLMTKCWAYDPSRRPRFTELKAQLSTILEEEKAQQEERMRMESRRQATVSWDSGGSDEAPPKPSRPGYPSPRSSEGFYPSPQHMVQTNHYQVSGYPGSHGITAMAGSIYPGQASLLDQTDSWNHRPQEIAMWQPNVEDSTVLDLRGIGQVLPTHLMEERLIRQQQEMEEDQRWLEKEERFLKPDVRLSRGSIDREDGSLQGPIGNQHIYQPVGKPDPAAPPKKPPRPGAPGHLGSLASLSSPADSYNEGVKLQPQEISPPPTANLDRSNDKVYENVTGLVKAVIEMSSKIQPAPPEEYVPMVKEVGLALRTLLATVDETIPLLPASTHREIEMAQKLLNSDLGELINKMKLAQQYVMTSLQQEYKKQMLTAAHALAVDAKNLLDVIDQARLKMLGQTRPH
In a further data set the test system is SNU-668 cells. Nature of the data set: Cell proliferation inhibition, SNU-668 (CELL TITER-GLO). It counts as cell-based. To be noted: Homo sapiens, SNU668, 96 h; SNU-668, 4 days. The protocol:
(§1) • a. SNU-668 cells (catalog number: 00668, KCLB) or NUGC4 cells (catalog number: 0834, JCRB) were allowed to grow to 70%-80% confluence, the supernatant of the culture medium was pipetitted off, rinsed once with PBS and then pipetitted off; • b. To a 10 cm dish was added 1 mL of 0.25% trypsin, votexed to homogenity and then place into incubator for digestion for 2-3 min; • c. The culture dish is removed from the incubator added with 2-3 mL complete culture medium to terminate the digestion, pipetitted into a 15 mL centrifuge tube, and then centrifuged in centrifuge at 1000 rpm for 5 minutes; • d. The supernatant was pipetitted off, and the cells were resuspended in 1 mL of complete culture medium, and then counted; • e. 1000 cells were plated into each well of 96-well plate, and then cultured overnight in a cell incubator, 2) Cell Administration with Compounds • a. Compounds to be tested were dissolved and votexed to homogeneity; • b. Each compound was serielly diluted in 1:3 ratio from 1 mM stock solution to 9 gradient concentrations; • c. The plate seeded with cells was taken out from the incubator, pipetitted off culture medium, and then added slowly in each well with 100 μL fresh culture medium by multi-channel pipette. Wells are labeled by corresponding compounds and concentrations, and then gently added with 100 μL compound-containing culture medium along the well wall by multi-channel pipette; • d. After the addition to all wells, the plate was gently shaken to allow homogeneous spread of the compound, and then put back to the incubator, with time recorded;
(§2) 4 days after the addition of compounds, the culture medium was removed and mixed at 100 μL from each well with cell titer-glo testing liquid in 1:1 ratio. The mixture was incubated with shaking at room temperature for 10 min and then counted with Plate reader.

The test system of a further data set is NUGC4 cells. Nature of the data set: Cell proliferation inhibition, NUGC4 (CELL TITER-GLO). In kind it is cell-based. The settings on record: Homo sapiens, NUGC-4, 96 h; NUGC4, 4 days. The protocol:
as §1, §2
Background: In ATP-based viability assays light output follows the ATP content of the culture.

The nature of data set [1]: In vivo pharmacokinetic evaluation in SD rats, gavage. The settings on record: rat, plasma, po, male SD rats. On the procedure:
Three male SD rats were administered with compounds in a single dose of 5 mg/kg or 3 mg/kg by gavage, and blood samples were collected before administration and at 0.25, 0.5, 1, 2, 4, 6, 8, and 24 h after administration.
Preparation of solutions of compounds to be dosed at 5 mg/kg: 5.5 mg compound (converted based on purity) was accurately weighed and added to 0.55 mL of DMSO. Clear solutions were obtained after stirring and sonication. 0.5 mL of each of the above solutions was added with 1 mL of Solutol, stirred for 1 minute; and then added with 8.5 mL of physiological saline and stirred for 1 minute, to obtain a clear solution at 0.5 mg/mL concentration.
Preparation of a solution of compounds to be dosed at 3 mg/kg: 3.6 mg compound (converted according to purity) was accurately weighed and added to 0.6 mL of DMSO. Clear solutions were obtained after stirring and sonication. 0.5 mL of each of the above solutions was added with 1 mL of Solutol and stirred for 1 minute; and then added with 8.5 mL of physiological saline and stirred for 1 minute, to obtain a clear solution at 0.3 mg/mL concentration.
Rats were administered the formulations prepared in step 2 by gavage at a dose of 10 mL/kg. The rats were fasted overnight before the administration and resumed feeding 4 hours after administration. Throughout the entire experiment, the animals were free to access drinking water.
The plasma concentration was measured using LC-MS/MS method.

[2] abbreviates: FAK kinase, enzyme pre-incubation 15 minutes at 25° C.

On FAK (setting [2]), `C=CC(=O)N1CCC(NC(=O)c2ccc(Nc3ncc(C(F)(F)F)c(NCc4nccnc4N(C)S(C)(=O)=O)n3)c(OC)c2)CC1` [Compound 1, N-(1-acryloylpiperidin-4-yl)-3-methoxy-4-((4-(((3-(N-methylmethanesulfonylamido)pyrazin-2-yl)methyl)amino)-5-(trifluoromethyl)pyrimidin-2-yl)amino)benzamide] displayed an IC50 of 1.13 nM.

Compound `C=CC(=O)N1CCC(CNC(=O)c2ccc(Nc3ncc(C(F)(F)F)c(Nc4ccccc4P(C)(C)=O)n3)cc2)CC1` [Compound 7, N-((1-acryloylpiperidin-4-yl)methyl)-4-((4-((2-(dimethylphosphoryl)phenyl)amino)-5-(trifluoromethyl)pyrimidin-2-yl)amino)benzamide] had an IC50 against FAK (setting [2]) of 3.58 nM.

`C=CC(=O)N1CCC(CNC(=O)c2ccc(Nc3ncc(C(F)(F)F)c(Nc4ccccc4P(C)(C)=O)n3)c(OC)c2)CC1` [Compound 8, N-((1-acryloylpiperidin-4-yl)methyl)-4-((4-((2-(dimethylphosphoryl)phenyl)amino)-5-(trifluoromethyl)pyrimidin-2-yl)amino)-3-methoxybenzamide]: the IC50 at FAK (setting [2]) is 5.79 nM.

For `C=CC(=O)N1CCCC(c2cccc(NCc3ccc(Nc4ncc(C(F)(F)F)c(Nc5ccccc5P(C)(C)=O)n4)cc3)c2)C1` (stereo not drawn) [Compound 10, 1-(3-(3-((4-((4-((2-(dimethylphosphoryl)phenyl)amino)-5-(trifluoromethyl)pyrimidin-2-yl)amino)benzyl)amino)phenyl)piperidin-1-yl)prop-2-en-1-one], 15.8 nM corresponded to half-maximal inhibition against FAK (setting [2]) (IC50).

In the case of `C=CC(=O)N1CCCC(c2cccc(NCc3ccc(Nc4ncc(C(F)(F)F)c(NCc5nccnc5N(C)S(C)(=O)=O)n4)cc3)c2)C1` (stereo not drawn) [Compound 14, N-(3-(((2-((4-(((3-(1-acryloylpiperidin-3-yl)phenyl)amino)methyl)phenyl)amino)-5-(trifluoromethyl)pyrimidin-4-yl)amino)methyl)pyrazin-2-yl)-N-methylmethanesulfonamide], the IC50 against FAK (setting [2]) stood at 4.36 nM.

Turning to `C=CC(=O)N1CCCC(c2cccc(NCc3ccc(Nc4ncc(Cl)c(Nc5ccccc5C(=O)NC)n4)cc3)c2)C1` (stereo not drawn) [Compound 15], in the data set on SNU-668 cells, it took 110 nM to reach half-maximal inhibition (IC50).

With `C=CC(=O)N1CCCC(c2cccc(NCc3ccc(Nc4ncc(Br)c(Nc5ccccc5C(=O)NC)n4)cc3)c2)C1` (stereo not drawn) [Compound 16, 2-((2-((4-(((3-(1-acryloylpiperidin-3-yl)phenyl)amino)methyl)phenyl)amino)-5-bromopyrimidin-4-yl)amino)-N-methylbenzamide], the IC50 at FAK (setting [2]) amounted to 6.73 nM; in the data set with SNU-668 cells it was 60 nM.

For `C=CC(=O)N1CCCC(c2cccc(NCc3ccc(Nc4ncc(C(F)(F)F)c(Nc5ccccc5C(=O)NCC)n4)cc3)c2)C1` (stereo not drawn) [Compound 17, 2-((2-((4-(((3-(1-acryloylpiperidin-3-yl)phenyl)amino)methyl)phenyl)amino)-5-(trifluoromethyl)pyrimidin-4-yl)amino)-N-ethylbenzamide], the IC50 at FAK (setting [2]) is 6.13 nM; in the data set with SNU-668 cells it was less than 10 nM.

As for `C=CC(=O)N1CCCC(c2cccc(NCc3ccc(Nc4ncc(C(F)(F)F)c(Nc5ccccc5C(=O)NC(C)C)n4)cc3)c2)C1` (stereo not drawn) [Compound 18, 2-((2-((4-(((3-(1-acryloylpiperidin-3-yl)phenyl)amino)methyl)phenyl)amino)-5-(trifluoromethyl)pyrimidin-4-yl)amino)-N-isopropylbenzamide], the IC50 at FAK (setting [2]) amounted to 17.9 nM; in the data set on SNU-668 cells it was 140 nM.

In the case of `C=CC(=O)N1CCCC(c2cccc(NCc3ccc(Nc4ncc(C(F)(F)F)c(Nc5cccc6c5C(=O)N(C)C6)n4)cc3)c2)C1` (stereo not drawn) [Compound 20, 7-((2-((4-(((3-(1-acryloylpiperidin-3-yl)phenyl)amino)methyl)phenyl)amino)-5-(trifluoromethyl)pyrimidin-4-yl)amino)-2-methylisoindolin-1-one], the IC50 at FAK (setting [2]) is 4.98 nM; with NUGC4 cells, 340 nM.

For `CC#CC(=O)N1CCCC(c2cccc(NCc3ccc(Nc4ncc(C(F)(F)F)c(Nc5ccccc5C(=O)NC)n4)cc3)c2)C1` (stereo not drawn) [Compound 21, 2-((2-((4-(((3-(1-(2-butynoyl)piperidin-3-yl)phenyl)amino)methyl)phenyl)amino)-5-(trifluoromethyl)pyrimidin-4-yl)amino)-N-methylbenzamide], the results for the IC50 against FAK (setting [2]) and in the data set on NUGC4 cells were 4.33 nM and 40 nM, respectively.

For the compound `C=C(C)C(=O)N1CCCC(c2cccc(NCc3ccc(Nc4ncc(C(F)(F)F)c(Nc5ccccc5C(=O)NC)n4)cc3)c2)C1` (stereo not drawn) [Compound 24, 2-((2-((4-(((3-(1-methylacryloylpiperidin-3-yl)phenyl)amino)methyl)phenyl)amino)-5-(trifluoromethyl)pyrimidin-4-yl)amino)-N-methylbenzamide], half-maximal inhibition in the data set with NUGC4 cells (IC50) was put at 20 nM.

Consider `C/C=C/C(=O)N1CCCC(c2cccc(NCc3ccc(Nc4ncc(C(F)(F)F)c(Nc5ccccc5C(=O)NC)n4)cc3)c2)C1` (stereo not drawn) [Compound 32, (E)-2-((2-((4-(((3-(1-(but-2-enoyl)piperidin-3-yl)phenyl)amino)methyl)phenyl)amino)-5-(trifluoromethyl)pyrimidin-4-yl)amino)-N-methylbenzamide], for which the IC50 against FAK (setting [2]) was 3.43 nM; with NUGC4 cells, 40 nM.

Regarding `C=C(F)C(=O)N1CCCC(c2cccc(NCc3ccc(Nc4ncc(C(F)(F)F)c(Nc5ccccc5C(=O)NC)n4)cc3)c2)C1` (stereo not drawn) [Compound 33, 2-((2-((4-(((3-(1-(2-fluoroacryloyl)piperidin-3-yl)phenyl)amino)methyl)phenyl)amino)-5-(trifluoromethyl)pyrimidin-4-yl)amino)-N-methylbenzamide], it took 20 nM to reach half-maximal inhibition in the data set on NUGC4 cells (IC50). In other words, the double-digit nanomolar range.

With `C=CC(=O)N1CCC[C@H](c2cccc(NCc3ccc(Nc4ncc(C(F)(F)F)c(Nc5ccccc5C(=O)NC)n4)cc3)c2)C1` [Compound 34, (R)-2-((2-((4-(((3-(1-acryloylpiperidin-3-yl)phenyl)amino)methyl)phenyl)amino)-5-(trifluoromethyl)pyrimidin-4-yl)amino)-N-methylbenzamide], the IC50 on FAK (setting [2]) turned out to be 1.27 nM; with NUGC4 cells it was 80 nM.

On to `C=CC(=O)N1CCC[C@@H](c2cccc(NCc3ccc(Nc4ncc(C(F)(F)F)c(Nc5ccccc5C(=O)NC)n4)cc3)c2)C1` [Compound 35, (S)-2-((2-((4-(((3-(1-acryloylpiperidin-3-yl)phenyl)amino)methyl)phenyl)amino)-5-(trifluoromethyl)pyrimidin-4-yl)amino)-N-methylbenzamide], for which the IC50 against FAK (setting [2]) was found to be 1.45 nM. Besides, in data set [1] (5 mg/kg), the AUC(0-inf) stood at 0.548 µM·h, the AUC(0-t) stood at 0.54 µM·h, the peak level (Cmax) was 130 nM and the Tmax worked out at 2.67 h. The same compound had a half-life in data set [1] (5 mg/kg) of 0.96 h.

Take `C=CC(=O)N1CCC[C@H](c2cccc(NCc3ccc(Nc4ncc(C(F)(F)F)c(Nc5ccccc5C(=O)NOC)n4)cc3)c2)C1` [Compound 36, (R) 2-((2-((4-(((3-(1-acryloylpiperidin-3-yl)phenyl)amino)methyl)phenyl)amino)-5-(trifluoromethyl)pyrimidin-4-yl)amino)-N-methoxybenzamide]: the IC50 at FAK (setting [2]) is 0.97 nM. For the same compound, in data set [1] (3 mg/kg), the AUC(0-inf) worked out at 0.711 µM·h, the exposure AUC(0-t) turned out to be 0.689 µM·h, the Cmax was 146 nM and the Tmax amounted to 2.67 h. Moreover, the half-life in data set [1] (3 mg/kg) is 1.2 h. It took 90 nM to reach half-maximal inhibition in the data set with NUGC4 cells (IC50).

Compound `C=CC(=O)N1CCC[C@@H](c2cccc(NCc3ccc(Nc4ncc(C(F)(F)F)c(Nc5ccccc5C(=O)NOC)n4)cc3)c2)C1` [Compound 37, (S) 2-((2-((4-(((3-(1-acryloylpiperidin-3-yl)phenyl)amino)methyl)phenyl)amino)-5-(trifluoromethyl)pyrimidin-4-yl)amino)-N-methoxybenzamide] gave an IC50 against FAK of 1.35 nM. For the same compound, in data set [1] (3 mg/kg), the area under the curve AUC(0-inf) stood at 0.368 µM·h, the AUC(0-t) turned out to be 0.361 µM·h, the Cmax came out at 87.2 nM and the Tmax came out at 2.67 h. The compound further gave a half-life in data set [1] (3 mg/kg) of 1.07 h. Further, in the data set with NUGC4 cells, the IC50 is 120 nM.
